Assay results taken from patent US20210301318A1, “A BIOMARKER AND TARGET FOR DIAGNOSIS, PROGNOSIS AND TREATMENT OF ANKYLOSING SPONDYLITIS” (priority 2018, published 2021).
“Also recorded” adds a separate entry of the source.

Experiments:
[1] = tested on: AS MSCs; test: Mineralization of AS MSCs under osteogenic induction (Alizarin red S staining); assay type: cell-based, human; details: 100 μM levamisole, 100 μM beryllium sulfate, or 1 μg/ml pamidronate
Protocol: The same passages (p3 to p5) of AS MSCs and N MSCs were compared.
The first culture condition was osteogenic induction, whereby α-MEM was supplemented with 10% fetal bovine serum (Gibco), 50 μg/mL ascorbate-2 phosphate (Sigma-Aldrich, St. Louis, Mo., USA), 10 nmol/L dexamethasone (Sigma-Aldrich), and 10 mmol/L β-glycerophosphate (Sigma-Aldrich). […] The medium was changed every 3 days. After appearance of the morphologic features of differentiation, cells were fixed with 4% paraformaldehyde. Cells treated by osteogenic culture were stained for Alizarin red S (Sigma-Aldrich) for mineralization. Quantification of Alizarin red S staining was conducted by measurement of the optical density (OD) of extracted dye at 550 nm with a plate reader (Molecular Devices, Sunnyvale, Calif., USA).
After morphological differentiation, cells were subjected to Alizarin red S staining.

[2] = target: T1, TNAP (Homo sapiens, UniProt P05186); details: from references 22-24; cited from earlier work
T1 sequence (P05186 18-501 limits assumed): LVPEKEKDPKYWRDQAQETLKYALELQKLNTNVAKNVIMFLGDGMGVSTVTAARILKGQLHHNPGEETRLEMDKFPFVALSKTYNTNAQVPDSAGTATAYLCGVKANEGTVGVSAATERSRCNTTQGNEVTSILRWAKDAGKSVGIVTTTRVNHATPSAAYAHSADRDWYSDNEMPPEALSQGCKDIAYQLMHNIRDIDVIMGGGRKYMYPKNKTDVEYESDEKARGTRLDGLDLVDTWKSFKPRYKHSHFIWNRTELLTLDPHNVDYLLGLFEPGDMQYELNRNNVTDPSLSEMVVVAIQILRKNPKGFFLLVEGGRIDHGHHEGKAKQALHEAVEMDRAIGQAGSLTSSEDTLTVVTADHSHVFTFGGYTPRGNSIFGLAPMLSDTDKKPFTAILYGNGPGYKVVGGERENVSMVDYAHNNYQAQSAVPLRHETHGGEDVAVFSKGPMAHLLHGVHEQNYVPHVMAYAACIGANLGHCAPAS

[3] = tested on: NOD-SCID mice implanted with AS MSCs; test: New bony apposition in NOD-SCID mice implanted with AS MSCs (micro-computed tomography of lumbar spine); assay type: in vivo; details: daily oral administration: levamisole 10 mg/kg, beryllium sulfate 7.5 mg/kg, pamidronate 0.3 mg/kg; micro-CT 3 weeks after implantation
Protocol: The animal experimental protocol was approved by the Animal Care and Utilization Committee of Taipei Tzu Chi General Hospital. NOD-SCID mice (8-10 weeks) were purchased from BioLASCO (Taipei, Taiwan) and maintained in a specific pathogen-free environment. Human MSCs were treated with β-glycerophosphate in culture for 5 days, embedded in fibrin (10^6 cells in 5 μl fibrin) (Baxter, Vienna, Austria) and implanted in areas adjacent to right lamina of lumbar spine segments L4 to L5 in NOD-SCID mice. The lamina of lumbar spine was decorticated using the forceps. Mice were fed with a 0.9% phosphate diet (Dyets, Bethlehem, Pa., USA) after surgery. Micro-computed tomography (SkyScan 1076; Kontich, Belgium) over lumbar spines was undertaken 3 weeks after implantation. Bone mineral density over the femur measured by micro-computed tomography in NOD-SCID mice following implantation with AS MSCs and daily oral administration of H2O levamisole (10 mg/kg), beryllium sulfate tetrahydrate (7.5 mg/kg), or pamidronate (0.3 mg/kg) for 12 weeks. Quantitative volumes of new bony apposition were acquired by Bruker CT-Volume version 2.0 software.

[4] = tested on: AS patients; details: cited from earlier work

| SMILES | accelerated mineralization in AS MSCs (ARS staining) [1] | type of TNAP inhibition [2] | new bony apposition induced by AS MSCs [3] | inflammation of AS patients ([4]; some studies, references 26-29) | serum BAP levels ([4]; one study, reference 34) |
| --- | --- | --- | --- | --- | --- |
| O.O.O.O.O=S(=O)([O-])[O-].[Be+2] [beryllium sulfate, BeSO4•4H2O] | blocked effectively | competitive |  |  |  |
| c1ccc([C@H]2CN3CCSC3=N2)cc1 [levamisole, (6S)-6-phenyl-2H,3H,5H,6H-imidazo[2,1-b][1,3]thiazole] | blocked effectively; also recorded: inhibit this abnormal mineralization | uncompetitive | blocked | marginally reduce inflammation |  |
| NCCC(O)(P(=O)(O)O)P(=O)(O)O [pamidronate] | blocked effectively; also recorded: inhibit this abnormal mineralization | uncompetitive | blocked |  | lowering serum BAP levels |
